Each compound was assayed against T1, APOL1 G1 Protein (Homo sapiens, UniProt O14791, I384M/S342G) (assay: Trypanosoma brucei brucei lysis assay using APOL1 recombinant protein (AlamarBlue viability readout)). Conditions: Trypanosoma brucei brucei (Lister 427 VSG 221 bloodstream form) lysis by 0.05 μg/mL recombinant APOL1 G1, 16 hrs.
T1 sequence (O14791 28-398 S342G/I384M): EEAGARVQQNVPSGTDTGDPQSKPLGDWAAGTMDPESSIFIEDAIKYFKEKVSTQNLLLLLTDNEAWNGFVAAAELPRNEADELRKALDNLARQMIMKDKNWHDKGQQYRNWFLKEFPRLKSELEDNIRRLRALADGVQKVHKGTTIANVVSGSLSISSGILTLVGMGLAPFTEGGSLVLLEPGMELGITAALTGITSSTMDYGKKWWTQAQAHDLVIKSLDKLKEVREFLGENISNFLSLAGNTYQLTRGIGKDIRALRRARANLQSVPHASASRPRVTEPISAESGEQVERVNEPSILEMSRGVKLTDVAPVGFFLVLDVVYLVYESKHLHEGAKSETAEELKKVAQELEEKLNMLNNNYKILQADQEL
Format: cell-based
Description: Trypanosoma brucei brucei is a blood stream parasite to which human, gorillas and baboon are immune due to the presence of the APOL1 protein in their HDL particles. The protein is uptaken by the parasite via the TbHpHb receptor located in its flagellar pocket and is bonded by the Hpr protein contained in the HDL particles which triggers the receptor endocytosis by the parasite.
Following endocytosis, the formed vesicle containing the HDL particle matures from early to late endosome, and subsequently to lysosome. The concomitant pH change in the lumen of the vesicle triggers the insertion of the APOL1 protein into the membrane of the late endosome/lysosome and hereby triggers lysosomal membrane premeabilisation and as a further downstream event, trypanosome lysis. Trypanosoma brucei brucei is sensitive to lysis by all three APOL1 variants (G0, G1, and G2).
The Trypanosoma brucei brucei lysis assay is a lysis assay of the parasite using recombinant APOL1 protein variant followed by a fluorescent detection method of viability by the addition of AlamarBlue reagent to the assay well, a general metabolic redox indicator (AlamarBlue assay).
Briefly, the AlamarBlue active compound, the resazurin, a blue, water soluble, non-toxic and cell permeable molecule, which can be followed by absorbance, is reduced by various metabolic pathways into resorufin, a red compound which can be followed by either absorbance or fluorescence. The assay allows the calculation of the percent viability (percent of living Trypanosomes remaining in each well) at the end of a lysis relative to the untreated condition by interpolation of fluorescent values (FLU) on a standard curve with a known amount of seeded trypanosome/well.
Trypanosoma brucei brucei (ATCC, Cat. No. PRA-382) • Lister 427 VSG 221 bloodstream form.
Thaw/Expansion Media (ATCC Medium 2834 Modified HMI-9 Medium)
Equipment • E1-Clip Tip pipette 12 channel adjustable 2-125 μL, Cat. No. 4672070BT • ThermoFisher MultiDrop 384, Cat. No. 5840300 • Multidrop • Agilent Bravo, Cat. No. G5409A • Bravo • SpectraMax M5
Trypanosoma brucei brucei Culture
Step 2, Day 4 • Centrifuge at 800×g for 5 minutes at room temperature. • Resuspend in 1 mL media. • Make a 1:25 fold dilution (10 μL/240 μL media). • Count on a hemocytometer (after adding parasites). • Let sit for 1-2 minutes for the parasites to settle. • Count should be approximately 100 viable motile parasites/16 grid or approximately 25×10^6 parasites/flask. • Passage the parasites by adding 1×10^6 parasites/T75 flask in 20 mL media. • Passage the parasites by adding 2.33×10^6 parasites/T175 flask in 46.6 mL media. • For every T75 flask should make enough for approximately 1.5×384 well assay plates. • For every T175 flask should make enough for approximately 3.8×384 well assay plates.
Step 3. Day 6 • Centrifuge at 800×g for 5 minutes. • Resuspend in 3 mL assay media (No phenol red, no FBS) per 75 starting flask. • Resuspend in 7 mL assay media (No phenol red, no FBS) per 175 flask • Make a 1:25 fold dilution. • Count by hemocytometer. • Every T75 flask set up should have approximately 75×10^6 parasites/flask (verify doubling time=8.7 hrs 1 hr). • Every T175 flask set up should have approximately 175×10^6 parasites/flask (verify doubling time=8.7 hrs±1 hr). • Require 46×10^6 parasites per 384 well plate (at 120,000 parasites per well).
Step 2, Day 2 • Centrifuge at 800×g for 5 minutes at room temperature. • Resuspend in 1 mL media. • Make a 1:25 fold dilution (10 L/240 μL media). • Let sit for 1-2 minutes for the parasites to settle. • Count should be approximately 100 viable motile parasites/16 grid or approximately 8×10^6 parasites per flask. • Passage the parasites by adding 1.25×10^6 parasites per T75 flask in 20 mL media. • For every T75 flask set up should have approximately 1.5×384 well assay plates. • For every T175 flask setup should have approximately 3.8×384 well assay plates. […]

SMILES | IC50
CC1C[C@H](NC(=O)CCc2c(-c3ccc(F)cc3)[nH]c3c(F)cc(F)cc23)C(=O)N1 (mixture of isomers) [Compound 6] | 250 to 1000 nM
CC1(NC(=O)CCc2c(-c3ccc(F)cc3)[nH]c3c(F)cc(F)cc23)CCNC1=O (racemic) [Compound 14] | < 250 nM
O=C(CCc1c(-c2ccc(F)cc2)[nH]c2c(F)cc(F)cc12)N[C@H]1CCNC1=O [Compound 3, 3-[5,7-difluoro-2-(4-fluorophenyl)-1H-indol-3-yl]-N-[(3S)-2-oxopyrrolidin-3-yl]propanamide] | < 250 nM
O=C1C[C@H](NC(=O)CCc2c(-c3ccc(F)cc3)[nH]c3c(F)cc(F)cc23)C(=O)N1 [Compound 5] | 250 to 1000 nM
O=C(CCc1c(-c2ccc(F)cc2)[nH]c2c(F)cc(F)cc12)N[C@H]1C[C@@H](CO)NC1=O [Compound 7] | > 1000 nM
O=C(CCc1c(-c2ccc(F)cc2)[nH]c2c(F)cc(F)cc12)N[C@H]1C[C@H](CO)NC1=O [Compound 8] | > 1000 nM
O=C(CCc1c(-c2ccc(F)cc2)[nH]c2c(F)cc(F)cc12)N[C@@H]1CCNC1=O [Compound 13] | < 250 nM
O=C1C[C@@H](NC(=O)CCc2c(-c3ccc(F)cc3)[nH]c3c(F)cc(F)cc23)C(=O)N1 [Compound 16] | 250 to 1000 nM
N#Cc1ccc(-c2[nH]c3c(F)cc(F)cc3c2CCC(=O)N[C@H]2CCNC2=O)cc1 [Compound 20, 3-[2-(4-cyanophenyl)-5,7-difluoro-1H-indol-3-yl]-N-[(3S)-2-oxopyrrolidin-3-yl]propanamide] | < 250 nM
O=C(CCc1c(-c2ccc(OC(F)F)cc2)[nH]c2c(F)cc(F)cc12)N[C@H]1CCNC1=O [Compound 21] | < 250 nM
O=C(CCc1c(-c2ccccc2)[nH]c2c(F)cc(F)cc12)N[C@@H]1C(=O)NC[C@H]1O [Compound 26] | < 250 nM
O=C(CCc1c(-c2ccc(F)cc2)[nH]c2c(F)cc(Br)cc12)N[C@H]1CCNC1=O [Compound 27] | < 250 nM
N#Cc1cc(F)c2[nH]c(-c3ccc(F)cc3)c(CCC(=O)N[C@H]3CCNC3=O)c2c1 [Compound 28] | > 1000 nM
Cc1cc(F)c2[nH]c(-c3ccc(F)cc3)c(CCC(=O)N[C@@H]3C(=O)NC[C@H]3O)c2c1 [Compound 29] | < 250 nM
O=C(CCc1c(-c2ccc(F)cc2)[nH]c2c(F)cc(Cl)cc12)N[C@@H]1C(=O)NC[C@H]1O [Compound 30] | < 250 nM
O=C(CCc1c(-c2ccc(F)cc2)[nH]c2c(Cl)cc(F)cc12)N[C@@H]1C(=O)NC[C@H]1O [Compound 36] | < 250 nM
Cc1cc(F)cc2c(CCC(=O)N[C@@H]3C(=O)NC[C@H]3O)c(-c3ccc(F)cc3)[nH]c12 [Compound 37] | < 250 nM
COc1cc(F)cc2c(CCC(=O)N[C@@H]3C(=O)NC[C@H]3O)c(-c3ccc(F)cc3)[nH]c12 [Compound 40] | < 250 nM
N#Cc1cc(F)cc2c(CCC(=O)N[C@@H]3C(=O)NC[C@H]3O)c(-c3ccc(F)cc3)[nH]c12 [Compound 42] | < 250 nM
Cc1ccc2[nH]c(-c3ccc(Br)cc3)c(CCC(=O)N[C@H]3CCNC3=O)c2c1 [Compound 43, 3-[2-(4-bromophenyl)-5-methyl-1H-indol-3-yl]-N-[(3S)-2-oxopyrrolidin-3-yl]propanamide] | < 250 nM
O=C(CCc1c(-c2ccccc2)[nH]c2ccc(Cl)cc12)N[C@@H]1C(=O)NC[C@H]1O [Compound 44, 3-(5-chloro-2-phenyl-1H-indol-3-yl)-N-[(3S,4R)-4-hydroxy-2-oxo-pyrrolidin-3-yl]propanamide] | < 250 nM
O=C(CCc1c(-c2ccc(F)cc2)[nH]c2ccc(F)cc12)N[C@@H]1C(=O)NC[C@H]1O [Compound 46] | < 250 nM

SMILES | IC50
O=C(CCc1c(-c2ccc(F)cc2)[nH]c2ccc(F)cc12)N[C@H]1CCNC1=O [Compound 47] | < 250 nM
O=C(CCc1c(-c2ccc(F)cc2)[nH]c2ccc(F)cc12)NC1CCNC1=O (centres unmarked) [Compound 48] | < 250 nM
O=C(CCc1c(-c2ccc(F)cc2)[nH]c2ccc(F)cc12)N[C@@H]1CCNC1=O [Compound 49] | 250 to 1000 nM
CN(C(=O)CCc1c(-c2ccc(F)cc2)[nH]c2ccc(F)cc12)C1CCNC1=O (centres unmarked) [Compound 50] | 250 to 1000 nM
O=C(CCc1c(-c2ccccc2)[nH]c2ccc(F)cc12)N[C@@H]1C(=O)NC[C@H]1O [Compound 51] | < 250 nM
O=C(CCc1c(-c2ccccc2)[nH]c2ccc(F)cc12)N[C@H]1CCNC1=O [Compound 52] | < 250 nM
O=C(CCc1c(-c2ccc(F)cc2)[nH]c2ccc(OCc3ccccc3)cc12)N[C@H]1CCNC1=O [Compound 54, 3-[5-benzyloxy-2-(4-fluorophenyl)-1H-indol-3-yl]-N-[(3S)-2-oxopyrrolidin-3-yl]propanamide] | 250 to 1000 nM
O=C(CCc1c(-c2ccc(F)cc2)[nH]c2ccc(O)cc12)N[C@H]1CCNC1=O [Compound 55, 3-[2-(4-fluorophenyl)-5-hydroxy-1H-indol-3-yl]-N-[(3S)-2-oxopyrrolidin-3-yl]propanamide] | > 1000 nM
O=C(CCc1c(-c2ccc(F)cc2)[nH]c2c(F)c(F)ccc12)N[C@@H]1C(=O)NC[C@H]1O [Compound 58] | < 250 nM
O=C(CCc1c(-c2ccccc2)[nH]c2c(F)c(F)ccc12)N[C@@H]1C(=O)NC[C@H]1O [Compound 59] | < 250 nM
O=C(CCc1c(-c2ccccc2)[nH]c2c(F)cccc12)N[C@@H]1C(=O)NC[C@H]1O [Compound 61] | < 250 nM
O=C(CCc1c(-c2ccccc2)[nH]c2c(Br)cccc12)N[C@@H]1C(=O)NC[C@H]1O [Compound 70] | < 250 nM
O=C(CCc1c(-c2ccc(F)cc2)[nH]c2c(Cl)cccc12)N[C@H]1CCNC1=O [Compound 72] | < 250 nM
O=C(CCc1c(-c2ccc(F)cc2)[nH]c2c(Cl)cccc12)N[C@@H]1C(=O)NC[C@H]1O [Compound 73] | < 250 nM
O=C(CCc1c(-c2ccc(F)cc2)[nH]c2c(F)cccc12)N[C@H]1CCNC1=O [Compound 75] | < 250 nM
O=C(CCc1c(-c2ccc(F)cc2)[nH]c2c(F)cccc12)N[C@@H]1C(=O)NC[C@H]1O [Compound 76] | < 250 nM
O=C(CCc1c(-c2ccc(F)cc2)[nH]c2c(F)ccc(F)c12)N[C@H]1CCNC1=O [Compound 78] | > 1000 nM
O=C(CCc1c(-c2ccccc2)[nH]c2c(F)c(F)c(F)cc12)N[C@@H]1C(=O)NC[C@H]1O [Compound 80] | < 250 nM
O=C(CCc1c(-c2ccccc2)[nH]c2cc(F)c(F)cc12)N[C@@H]1C(=O)NC[C@H]1O [Compound 82] | < 250 nM
O=C(CCc1c(-c2ccccc2)[nH]c2cc(F)cc(F)c12)N[C@@H]1C(=O)NC[C@H]1O [Compound 85] | < 250 nM
O=C(CCc1c(-c2ccccc2)[nH]c2ccccc12)N[C@@H]1C(=O)NC[C@H]1O [Compound 86] | < 250 nM
O=C(CCc1c(-c2ccc(F)cc2)[nH]c2ccccc12)N[C@@H]1C(=O)NC[C@H]1O [Compound 87, 3-[2-(4-fluorophenyl)-1H-indol-3-yl]-N-[(3S,4R)-4-hydroxy-2-oxo-pyrrolidin-3-yl]propanamide] | < 250 nM

— patent US11618746B2, “Inhibitors of APOL1 and methods of using same” (Vertex Pharmaceuticals Incorporated, priority 2018, dated 2023)
